This is an account of results in patent US20190119284A1, “ErbB Inhibitors and Uses Thereof” (The Regents of the University of California, priority 2016, published 2019).

In one test the target is IGF1R (Homo sapiens, UniProt P08069). Briefly: Nanosyn in vitro kinase profiling: IGF1R. The settings on record: for inhibition at 1 µM: compound at 1 μM. Type of test: biochemical. How it is done:
(§1) This was confirmed by in vitro profiling against a panel of kinases, with compound 2 only showing potent inhibition of EGFR and Ab1 (Table 2).
(§2) In vitro Kinome Screen. In vitro profiling of compound 2 at 100 nM was conducted by Nanosyn.

The target in the next test is PYK2 (Homo sapiens, UniProt Q14289). The test is described as follows: Nanosyn in vitro kinase profiling: PYK2. The format is biochemical. To be noted: for inhibition at 1 µM: compound at 1 μM. As to the method:
as §1, §2

The target in a further test is T1, AURORA-A (Homo sapiens, UniProt O14965).
T1 sequence (O14965 1-403): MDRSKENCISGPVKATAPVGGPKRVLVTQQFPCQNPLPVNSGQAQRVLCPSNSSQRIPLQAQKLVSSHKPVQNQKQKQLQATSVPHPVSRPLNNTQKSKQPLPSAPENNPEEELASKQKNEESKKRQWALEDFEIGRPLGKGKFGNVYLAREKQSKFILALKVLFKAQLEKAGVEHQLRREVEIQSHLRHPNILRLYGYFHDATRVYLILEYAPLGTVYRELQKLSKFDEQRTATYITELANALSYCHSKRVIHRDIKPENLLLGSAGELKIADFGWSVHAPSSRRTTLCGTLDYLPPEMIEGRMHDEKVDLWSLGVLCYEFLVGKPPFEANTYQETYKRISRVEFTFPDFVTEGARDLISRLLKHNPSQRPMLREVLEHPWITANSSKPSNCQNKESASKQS
The test is described as follows: Nanosyn in vitro kinase profiling: AURORA-A. The settings on record: for inhibition at 1 µM: compound at 1 μM. Type of test: biochemical. As to the method: as §1, §2

Another test addresses LCK (Homo sapiens, UniProt P06239). The test is described as follows: Nanosyn in vitro kinase profiling: LCK. Type of test: biochemical. The settings on record: for inhibition at 1 µM: compound at 1 μM. As to the method: as §1, §2
In another test the target is FGFR1 (Homo sapiens, UniProt P11362). Briefly: Nanosyn in vitro kinase profiling: FGFR1. Type of test: biochemical. To be noted: for inhibition at 1 µM: compound at 1 μM. How it is done:
as §1, §2

Another test concerns the target T2, NEK2 (Homo sapiens, UniProt P51955).
T2 sequence (P51955 1-445): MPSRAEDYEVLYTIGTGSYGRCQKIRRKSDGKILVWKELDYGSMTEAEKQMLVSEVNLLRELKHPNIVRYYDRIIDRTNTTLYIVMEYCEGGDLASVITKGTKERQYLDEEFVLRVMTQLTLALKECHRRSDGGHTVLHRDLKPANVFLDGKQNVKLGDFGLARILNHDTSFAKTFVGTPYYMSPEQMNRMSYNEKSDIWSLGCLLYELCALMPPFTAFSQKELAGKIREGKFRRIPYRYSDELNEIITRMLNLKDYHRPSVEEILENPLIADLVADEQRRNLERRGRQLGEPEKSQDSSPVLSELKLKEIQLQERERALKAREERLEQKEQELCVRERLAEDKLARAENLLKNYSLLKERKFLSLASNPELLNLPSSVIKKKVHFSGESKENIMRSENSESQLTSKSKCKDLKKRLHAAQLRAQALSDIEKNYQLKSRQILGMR
Briefly: Nanosyn in vitro kinase profiling: NEK2. Type of test: biochemical. To be noted: for inhibition at 1 µM: compound at 1 μM. As to the method:
as §1, §2

For a further test, the target named is T3, PDK1 (Homo sapiens, UniProt O15530).
T3 sequence (O15530 1-556): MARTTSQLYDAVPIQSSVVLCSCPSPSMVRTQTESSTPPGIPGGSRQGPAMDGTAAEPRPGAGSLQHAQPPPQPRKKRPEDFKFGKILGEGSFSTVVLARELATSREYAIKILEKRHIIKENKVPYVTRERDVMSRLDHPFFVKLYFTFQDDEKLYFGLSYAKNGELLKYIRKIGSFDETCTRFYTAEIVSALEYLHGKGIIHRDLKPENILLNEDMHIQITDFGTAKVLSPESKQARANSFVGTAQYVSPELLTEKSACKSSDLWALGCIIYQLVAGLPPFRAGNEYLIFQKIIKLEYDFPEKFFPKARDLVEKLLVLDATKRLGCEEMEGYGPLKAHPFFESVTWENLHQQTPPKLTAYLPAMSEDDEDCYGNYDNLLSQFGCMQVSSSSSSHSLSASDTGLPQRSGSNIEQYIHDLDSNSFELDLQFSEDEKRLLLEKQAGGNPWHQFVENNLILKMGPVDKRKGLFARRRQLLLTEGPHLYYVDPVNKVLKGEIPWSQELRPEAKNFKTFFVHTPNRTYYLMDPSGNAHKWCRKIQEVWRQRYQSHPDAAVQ
Briefly: Nanosyn in vitro kinase profiling: PDK1. To be noted: for inhibition at 1 µM: compound at 1 μM. Type of test: biochemical. As to the method:
as §1, §2

The target of a further test is T4, IRAK4 (Homo sapiens, UniProt Q9NWZ3).
T4 sequence (Q9NWZ3 1-460): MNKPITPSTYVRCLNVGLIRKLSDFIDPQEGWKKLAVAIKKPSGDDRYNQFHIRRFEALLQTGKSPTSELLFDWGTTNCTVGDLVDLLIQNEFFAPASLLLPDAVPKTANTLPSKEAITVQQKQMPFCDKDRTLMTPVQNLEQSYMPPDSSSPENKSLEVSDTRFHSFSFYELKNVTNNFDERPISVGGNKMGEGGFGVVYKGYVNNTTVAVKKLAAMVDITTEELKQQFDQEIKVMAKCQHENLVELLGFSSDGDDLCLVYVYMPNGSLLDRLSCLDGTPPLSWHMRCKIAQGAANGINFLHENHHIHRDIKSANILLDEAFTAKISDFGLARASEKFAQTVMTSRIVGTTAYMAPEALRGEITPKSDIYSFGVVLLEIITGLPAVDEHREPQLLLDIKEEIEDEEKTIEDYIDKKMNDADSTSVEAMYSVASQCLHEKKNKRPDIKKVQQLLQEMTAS
The test is described as follows: Nanosyn in vitro kinase profiling: IRAK4. Type of test: biochemical. The settings on record: for inhibition at 1 µM: compound at 1 μM. As to the method:
as §1, §2

For test [1], the system named is HER2 and HER3 signaling in NCI-H1781 cells. Briefly: HER2 and HER3 signaling in NCI-H1781 cells (immunoblot). To be noted: NCI-H1781 cells (HER2 kinase domain insertion); 15 min after drug. Type of test: cell-based. As to the method:
Immunoblotting. Cells were grown in 6 well plates and treated according to the indicated conditions at which point the media was aspirated, cells were washed with 1 mL of cold PBS, which was then aspirated and the plates were frozen at −80° C. The frozen cells were thawed on the plates in a buffer containing 50 mM Tris pH 7.5, 150 mM NaCl, 1 mM EDTA, and 1% Triton X-100 supplemented with 1× phosphatase (PhoSTOP, Roche) and 1× protease (complete-mini tablets, Roche) inhibitors. Lysates were scraped, transferred to Eppendorf tubes, and cleared by centrifugation at 20,000×g for 20 min at 4° C. The clarified lysates were transferred to chilled, clean tubes, and normalized for protein concentration by Bradford (Bio-Rad). The normalized lysates were diluted with Laemmli loading buffer, and 10 μg of total protein was run on a 4-12% gradient gel (Invitrogen), which was then transferred to […] nitrocellulose (Bio-Rad) and analyzed using the indicated primary antibodies according to the manufacturer's recommendations. Primary antibodies were detected using IRDye secondary antibodies (Li-Cor) according to the manufacturer's recommendations and scanned on an Odyssey imager (Li-Cor). Scanned images were cropped and assembled in Adobe Illustrator 6.

Sequence of LCK (P06239 whole entry): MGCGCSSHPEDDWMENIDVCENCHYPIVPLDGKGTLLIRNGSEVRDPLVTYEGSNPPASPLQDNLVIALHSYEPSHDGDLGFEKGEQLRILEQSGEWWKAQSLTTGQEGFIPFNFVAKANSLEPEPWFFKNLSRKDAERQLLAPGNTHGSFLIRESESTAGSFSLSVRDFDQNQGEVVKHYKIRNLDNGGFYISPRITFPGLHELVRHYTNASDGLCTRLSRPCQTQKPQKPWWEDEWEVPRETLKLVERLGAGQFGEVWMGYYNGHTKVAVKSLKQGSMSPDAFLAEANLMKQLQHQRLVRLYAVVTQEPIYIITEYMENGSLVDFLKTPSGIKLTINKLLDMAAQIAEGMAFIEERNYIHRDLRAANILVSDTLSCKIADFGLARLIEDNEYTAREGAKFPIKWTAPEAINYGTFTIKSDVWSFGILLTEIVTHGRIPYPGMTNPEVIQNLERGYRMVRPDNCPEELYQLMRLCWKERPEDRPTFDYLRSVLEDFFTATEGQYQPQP
Sequence of FGFR1 (P11362 22-822): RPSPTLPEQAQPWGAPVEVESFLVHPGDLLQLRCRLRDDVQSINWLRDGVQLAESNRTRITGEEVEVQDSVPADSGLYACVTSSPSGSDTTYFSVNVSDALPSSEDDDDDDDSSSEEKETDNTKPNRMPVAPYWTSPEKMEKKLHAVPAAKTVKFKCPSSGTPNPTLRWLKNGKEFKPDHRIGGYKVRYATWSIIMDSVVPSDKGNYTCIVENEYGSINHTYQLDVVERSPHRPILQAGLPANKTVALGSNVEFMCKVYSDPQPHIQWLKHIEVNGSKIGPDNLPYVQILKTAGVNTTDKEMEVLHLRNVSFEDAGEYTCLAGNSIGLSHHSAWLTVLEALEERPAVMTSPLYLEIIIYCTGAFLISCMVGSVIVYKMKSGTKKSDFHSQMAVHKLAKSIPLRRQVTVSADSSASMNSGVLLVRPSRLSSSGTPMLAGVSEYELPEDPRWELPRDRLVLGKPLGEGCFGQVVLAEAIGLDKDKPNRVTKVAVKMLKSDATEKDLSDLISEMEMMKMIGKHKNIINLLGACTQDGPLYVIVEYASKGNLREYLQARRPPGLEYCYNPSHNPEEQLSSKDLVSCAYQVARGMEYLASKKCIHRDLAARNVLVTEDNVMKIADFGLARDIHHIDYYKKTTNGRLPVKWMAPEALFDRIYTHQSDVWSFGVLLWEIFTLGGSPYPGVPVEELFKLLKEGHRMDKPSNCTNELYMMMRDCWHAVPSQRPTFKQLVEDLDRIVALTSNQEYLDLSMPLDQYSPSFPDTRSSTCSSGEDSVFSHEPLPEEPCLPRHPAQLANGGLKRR
Sequence of PYK2 (Q14289 whole entry, species assumed): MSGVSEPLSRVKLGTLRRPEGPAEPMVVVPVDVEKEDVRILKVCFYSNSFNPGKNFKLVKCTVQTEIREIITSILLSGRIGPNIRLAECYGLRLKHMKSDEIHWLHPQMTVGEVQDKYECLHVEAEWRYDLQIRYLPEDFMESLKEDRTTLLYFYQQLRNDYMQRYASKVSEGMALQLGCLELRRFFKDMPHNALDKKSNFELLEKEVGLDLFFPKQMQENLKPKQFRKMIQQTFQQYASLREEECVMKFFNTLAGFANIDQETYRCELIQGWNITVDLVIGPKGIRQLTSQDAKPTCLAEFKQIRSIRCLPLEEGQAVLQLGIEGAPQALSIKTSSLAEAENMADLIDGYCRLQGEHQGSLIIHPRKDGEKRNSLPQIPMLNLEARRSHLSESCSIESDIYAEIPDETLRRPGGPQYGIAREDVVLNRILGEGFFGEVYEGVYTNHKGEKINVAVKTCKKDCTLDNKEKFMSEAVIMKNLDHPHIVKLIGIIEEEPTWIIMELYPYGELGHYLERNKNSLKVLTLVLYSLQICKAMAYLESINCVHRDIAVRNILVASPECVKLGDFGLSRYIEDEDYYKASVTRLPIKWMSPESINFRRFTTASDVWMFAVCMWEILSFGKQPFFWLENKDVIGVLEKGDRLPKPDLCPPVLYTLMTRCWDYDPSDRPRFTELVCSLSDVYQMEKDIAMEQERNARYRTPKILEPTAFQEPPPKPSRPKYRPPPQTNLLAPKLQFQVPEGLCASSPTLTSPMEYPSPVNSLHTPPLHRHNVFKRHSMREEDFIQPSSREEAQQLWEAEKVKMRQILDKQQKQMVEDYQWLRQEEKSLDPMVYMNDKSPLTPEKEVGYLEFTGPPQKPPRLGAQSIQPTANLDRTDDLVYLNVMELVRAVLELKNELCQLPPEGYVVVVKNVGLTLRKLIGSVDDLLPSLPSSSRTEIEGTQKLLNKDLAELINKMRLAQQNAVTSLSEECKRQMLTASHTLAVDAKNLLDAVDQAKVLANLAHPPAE
Sequence of IGF1R (P08069 31-1367): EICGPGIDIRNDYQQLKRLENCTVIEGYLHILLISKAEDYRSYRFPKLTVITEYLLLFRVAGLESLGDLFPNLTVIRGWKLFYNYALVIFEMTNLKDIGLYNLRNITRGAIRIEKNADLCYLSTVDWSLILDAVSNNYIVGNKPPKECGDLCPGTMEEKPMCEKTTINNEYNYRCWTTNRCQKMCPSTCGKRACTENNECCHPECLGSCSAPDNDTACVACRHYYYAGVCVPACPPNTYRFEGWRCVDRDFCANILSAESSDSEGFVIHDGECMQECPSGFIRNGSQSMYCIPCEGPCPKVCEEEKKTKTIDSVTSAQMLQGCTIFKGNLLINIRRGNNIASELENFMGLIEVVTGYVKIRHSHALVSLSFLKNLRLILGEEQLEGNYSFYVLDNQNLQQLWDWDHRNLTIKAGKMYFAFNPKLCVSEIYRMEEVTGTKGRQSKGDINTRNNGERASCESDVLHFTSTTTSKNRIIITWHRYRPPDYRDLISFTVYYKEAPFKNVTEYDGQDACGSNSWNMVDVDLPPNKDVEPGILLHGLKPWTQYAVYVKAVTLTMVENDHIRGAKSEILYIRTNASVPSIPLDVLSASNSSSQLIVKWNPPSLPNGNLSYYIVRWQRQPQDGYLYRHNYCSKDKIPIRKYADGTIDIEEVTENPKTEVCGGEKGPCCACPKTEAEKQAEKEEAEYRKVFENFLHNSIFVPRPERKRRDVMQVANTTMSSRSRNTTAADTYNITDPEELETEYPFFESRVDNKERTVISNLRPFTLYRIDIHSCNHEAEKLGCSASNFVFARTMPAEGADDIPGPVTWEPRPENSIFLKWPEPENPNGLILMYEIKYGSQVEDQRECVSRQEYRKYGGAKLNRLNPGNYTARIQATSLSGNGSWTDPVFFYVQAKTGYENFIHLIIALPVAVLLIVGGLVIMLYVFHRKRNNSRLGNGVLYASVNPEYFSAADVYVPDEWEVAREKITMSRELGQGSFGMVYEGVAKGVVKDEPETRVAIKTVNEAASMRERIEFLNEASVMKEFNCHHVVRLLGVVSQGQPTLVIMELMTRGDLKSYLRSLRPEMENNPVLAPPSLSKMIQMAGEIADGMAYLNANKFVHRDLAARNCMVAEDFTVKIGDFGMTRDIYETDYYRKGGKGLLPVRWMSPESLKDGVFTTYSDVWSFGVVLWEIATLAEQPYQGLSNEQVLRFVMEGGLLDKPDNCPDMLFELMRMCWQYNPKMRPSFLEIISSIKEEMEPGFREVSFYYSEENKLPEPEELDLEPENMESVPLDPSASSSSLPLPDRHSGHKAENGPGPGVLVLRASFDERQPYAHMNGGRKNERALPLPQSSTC

With `COc1ccc(-c2ccco2)cc1Nc1ncnc2[nH]nc(-c3ccco3)c12` [compound 2, 3-(furan-2-yl)-N-(5-(furan-2-yl)-2-methoxyphenyl)-1H-pyrazolo[3,4-d]pyrimidin-4-amine], the inhibition – broadly, the drop in the measured response relative to a control, in per cent – at 0.1 µM at IGF1R (compound at 100 nM) turned out to be 13.3%; on PYK2 (compound at 100 nM), 3.81%; against AURORA-A (compound at 100 nM) it was 9.95%; against LCK (compound at 100 nM), 74.2%; against FGFR1 (compound at 100 nM) it was 48.3%; at NEK2 (compound at 100 nM), 1.53%. In addition, the values for the inhibition at 0.1 µM against PDK1 (compound at 100 nM) and against IRAK4 (compound at 100 nM) were 4.58% and 1.47%, respectively. Moreover, the inhibition at 1 µM worked out at 53.3% against IGF1R; 20.2% against PYK2; 47.2% on AURORA-A; 93.6% on LCK; 86.3% against FGFR1; 2.98% at NEK2. Moreover, the results for the inhibition at 1 µM on PDK1 and against IRAK4 were 18.3% and 1.42%, respectively.
For `COc1ccc(-c2ccoc2)cc1Nc1ncnc2[nH]cc(-c3cc[nH]n3)c12` [compound 3, N-(5-(furan-3-yl)-2-methoxyphenyl)-5-(1H-pyrazol-3-yl)-7H-pyrrolo[2,3-d]pyrimidin-4-amine], the inhibition at 1 µM was 46% against IGF1R; 41% against PYK2; 31% at AURORA-A; 98% on LCK; 93% against FGFR1; -9% against NEK2. The results for the inhibition at 1 µM at PDK1 and against IRAK4 were 5% and 34%, respectively. Besides, the “inhibition of HER2/HER3 signaling” value in test [1] is “rapidly and fully inhibited”.
Consider `CS(=O)(=O)CCNCc1ccc(-c2ccc3ncnc(Nc4ccc(OCc5cccc(F)c5)c(Cl)c4)c3c2)o1` [lapatinib], for which, in [1], the “inhibition of HER2/HER3 signaling” value is given as “unable to fully inhibit signaling”.
